Data taken from patent US20030068282A1, “Composition” (Unilever Home & Personal Care USA, Division of Conopco, Inc., priority 2001, published 2003).

Assay: salivary sediment model: amount of n-octyl paraben delivered from toothpaste to salivary sediment
Format: in vitro ADME
Conditions: for amount of paraben delivered, Rep 1 / amount of paraben delivered, Rep 2 / amount of paraben delivered, Mean: toothpaste with 1.1% n-octyl paraben; for amount of paraben delivered, Rep 1 / amount of paraben delivered, Rep 2: ex-vivo samples; for amount of paraben delivered, Mean: mean of two repetitions
Procedure: Standard toothpastes comprising SLS and n-octyl paraben were tested in a salivary sediment model similar to that described by R. L. Wijeijweera and I. Kleinberg in Archs. Oral Biol., Vol. 34, No. 1, 1989, pages 43-53, using ex-vivo samples and measuring the amount of n-octyl paraben delivered to the salivary sediment.
Two repetitions were carried out for each SLS level in a paste comprising 1.1% n-octyl paraben. The values represnet the amount (ppm per ml sediment suspension) of paraben delivered.

What does the source list for `CCCCCCCCOC(=O)c1ccc(O)cc1` [n-octyl paraben]?
level of paraben delivered, comparison between SLS levels (SLS levels 1.4 and 1.6% compared with 1.8%): greater at SLS levels ranging at 1.4 and 1.6% than for 1.8%; amount of paraben delivered, Rep 1 (1.4% SLS in base): 60.080 ppm per ml sediment suspension; amount of paraben delivered, Rep 2 (1.4% SLS in base): 61.657 ppm per ml sediment suspension; amount of paraben delivered, Mean (1.4% SLS in base): 60.869 ppm per ml sediment suspension; amount of paraben delivered, Rep 1 (1.6% SLS in base): 59.534 ppm per ml sediment suspension; amount of paraben delivered, Rep 2 (1.6% SLS in base): 63.775 ppm per ml sediment suspension; amount of paraben delivered, Mean (1.6% SLS in base): 61.654 ppm per ml sediment suspension; amount of paraben delivered, Rep 1 (1.8% SLS in base): 48.790 ppm per ml sediment suspension; amount of paraben delivered, Rep 2 (1.8% SLS in base): 48.352 ppm per ml sediment suspension; amount of paraben delivered, Mean (1.8% SLS in base): 48.571 ppm per ml sediment suspension
